Laboratory results reported in patent publication US9096548B2, “Pyrazine amide compounds” (Boehringer Ingelheim International GmbH, priority 2013, dated 2015).
Counter-ions that a name gives are not always drawn. Like-named read-outs stand apart in the source and are kept apart here.

Target: T1, ENaC (Epithelial Sodium Channel) (Mus musculus, UniProt Q61180+Q9WU38+Q9WU39)
T1 construct: Mouse kidney M−1 cells were cultivated in DMEM; endogenous in cells; host or cells: Mouse kidney M-1 cells, cultivated with dexamethasone on transwell filters
T1 sequence (Q61180 1-699): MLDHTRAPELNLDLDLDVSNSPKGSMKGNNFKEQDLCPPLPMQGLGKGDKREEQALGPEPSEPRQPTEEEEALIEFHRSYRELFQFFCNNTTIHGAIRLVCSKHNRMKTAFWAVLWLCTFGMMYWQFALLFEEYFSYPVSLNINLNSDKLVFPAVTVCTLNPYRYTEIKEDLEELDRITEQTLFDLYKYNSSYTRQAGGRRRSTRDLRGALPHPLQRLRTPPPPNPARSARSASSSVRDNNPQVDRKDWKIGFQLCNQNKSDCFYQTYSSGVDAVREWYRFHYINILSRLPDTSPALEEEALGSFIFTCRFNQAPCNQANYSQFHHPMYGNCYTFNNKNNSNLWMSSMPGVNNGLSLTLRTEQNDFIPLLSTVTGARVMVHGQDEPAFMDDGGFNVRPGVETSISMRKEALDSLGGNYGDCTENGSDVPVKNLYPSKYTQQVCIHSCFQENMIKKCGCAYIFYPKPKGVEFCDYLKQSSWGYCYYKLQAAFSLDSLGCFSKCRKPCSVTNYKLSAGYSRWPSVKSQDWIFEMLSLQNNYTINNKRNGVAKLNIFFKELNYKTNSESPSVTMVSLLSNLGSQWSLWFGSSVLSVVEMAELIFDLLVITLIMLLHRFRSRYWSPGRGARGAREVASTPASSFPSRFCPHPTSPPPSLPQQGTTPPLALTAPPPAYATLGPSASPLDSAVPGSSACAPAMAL
T1 sequence (Q9WU38 1-638): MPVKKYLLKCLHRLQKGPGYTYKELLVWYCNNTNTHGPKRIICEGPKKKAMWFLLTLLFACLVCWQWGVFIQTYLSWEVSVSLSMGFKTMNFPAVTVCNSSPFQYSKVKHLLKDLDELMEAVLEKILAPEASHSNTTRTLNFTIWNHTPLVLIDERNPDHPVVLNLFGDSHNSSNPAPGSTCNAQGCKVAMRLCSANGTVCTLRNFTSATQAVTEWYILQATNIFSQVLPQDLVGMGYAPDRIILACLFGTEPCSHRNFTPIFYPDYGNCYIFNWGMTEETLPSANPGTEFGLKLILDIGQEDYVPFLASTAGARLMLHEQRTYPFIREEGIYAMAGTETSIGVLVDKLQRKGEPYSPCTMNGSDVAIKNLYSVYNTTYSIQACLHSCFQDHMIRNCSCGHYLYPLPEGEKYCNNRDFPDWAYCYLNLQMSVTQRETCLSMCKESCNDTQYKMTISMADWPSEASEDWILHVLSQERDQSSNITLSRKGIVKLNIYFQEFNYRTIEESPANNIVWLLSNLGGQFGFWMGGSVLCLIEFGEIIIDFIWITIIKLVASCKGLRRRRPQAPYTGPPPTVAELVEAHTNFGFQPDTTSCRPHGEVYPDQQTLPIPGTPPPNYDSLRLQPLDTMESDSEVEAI
T1 sequence (Q9WU39 1-655): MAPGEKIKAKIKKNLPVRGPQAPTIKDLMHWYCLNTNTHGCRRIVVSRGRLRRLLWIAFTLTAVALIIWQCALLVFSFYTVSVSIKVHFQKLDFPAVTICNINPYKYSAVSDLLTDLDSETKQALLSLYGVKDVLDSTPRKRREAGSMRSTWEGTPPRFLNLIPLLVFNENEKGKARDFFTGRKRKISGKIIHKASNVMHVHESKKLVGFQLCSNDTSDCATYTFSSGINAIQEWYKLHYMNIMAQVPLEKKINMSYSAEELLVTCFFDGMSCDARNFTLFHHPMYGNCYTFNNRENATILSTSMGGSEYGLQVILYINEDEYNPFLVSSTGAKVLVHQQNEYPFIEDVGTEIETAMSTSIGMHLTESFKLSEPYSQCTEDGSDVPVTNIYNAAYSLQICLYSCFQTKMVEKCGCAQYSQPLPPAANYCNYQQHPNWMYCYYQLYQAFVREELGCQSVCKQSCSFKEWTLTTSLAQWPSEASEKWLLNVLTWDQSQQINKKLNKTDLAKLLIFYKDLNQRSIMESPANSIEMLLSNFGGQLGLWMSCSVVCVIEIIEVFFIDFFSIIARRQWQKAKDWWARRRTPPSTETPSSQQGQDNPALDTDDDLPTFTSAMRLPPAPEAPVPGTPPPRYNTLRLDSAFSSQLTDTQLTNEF
Test: Ussing Chamber assay (short circuit current, amiloride sensitive I_SC)
Type: cell-based
Settings: Ussing chamber, mouse kidney M-1 cells, short circuit current, read-out: IC50
In short: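 Mouse kidney M-1 cells grown 10–12 days on filters with 5 μM dexamethasone, measured in Caco-2 transport buffer at 37° C under voltage clamp. Compound applied apically at 3 μM or 1-3-10 μM; 3 μM amiloride added at end. Short circuit current inhibition given as percent of amiloride effect or IC50.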

[1] = compound added to the apical solution

Nc1nc(N)c(C(=O)N[C@H]2CCC[N+](CCCc3ccc(OCC(=O)N(CCO)CCO)cc3)(CCCc3ccc(OCC(=O)N(CCO)CCO)cc3)C2)nc1Cl [Example 6.66]
IC50 [1]: 0.121 µM

CP(C)(=O)CNC(=O)COc1ccc(CCC[N+]2(CCCc3ccc(OCC(=O)NCP(C)(C)=O)cc3)CCC[C@H](NC(=O)c3nc(Cl)c(N)nc3N)C2)cc1 [Example 6.67]
IC50 [1]: 0.131 µM

COC(=O)C[C@@H](C[N+](C)(CCCc1ccc(OC)cc1)CCCc1ccc(OC)cc1)NC(=O)c1nc(Cl)c(N)nc1N [Example 7, {(S)-2-[(3,5-Diamino-6-chloro-pyrazine-2-carbonyl)-amino]-3-methoxycarbonyl-propyl}-bis-[3-(4-methoxy-phenyl)-propyl]-methyl-ammonium chloride]
IC50 (unit inferred): 0.021 µM

COC(=O)C[C@H](C[N+](C)(CCCc1ccc(OC)cc1)CCCc1ccc(OC)cc1)NC(=O)c1nc(Cl)c(N)nc1N [Example 7.1, {(R)-2-[(3,5-Diamino-6-chloro-pyrazine-2-carbonyl)-amino]-3-methoxycarbonyl-propyl}-bis-[3-(4-methoxy-phenyl)-propyl]-methyl-ammonium chloride]
IC50 (unit inferred): 1.3 µM

COc1ccc(CCC[N+](C)(CCCc2ccc(OC)cc2)C[C@H](CC(=O)O)NC(=O)c2nc(Cl)c(N)nc2N)cc1 [Example 7.2, {(S)-3-Carboxy-2-[(3,5-diamino-6-chloro-pyrazine-2-carbonyl)-amino]-propyl}-bis-[3-(4-methoxy-phenyl)-propyl]-methyl-ammonium]
IC50 (value printed in the example text with μM): 1.38 µM

COC(=O)COc1ccc(CCC[N+]2(CCCc3ccc(OCC(=O)O)cc3)CCCC(NC(=O)c3nc(Cl)c(N)nc3N)C2)cc1 (stereo not drawn) [Example 8, 1-[3-(4-Carboxymethoxy-phenyl)-propyl]-3-[(3,5-diamino-6-chloro-pyrazine-2-carbonyl)amino]-1-[3-(4-methoxycarbonylmethoxy-phenyl)-propyl]-piperidinium trifluoroacetate]
IC50 (unit inferred): 0.165 µM

COC(=O)COc1ccc(CCC[N+]2(CCCc3ccc(OCC(=O)NCCN(C)C)cc3)CCCC(NC(=O)c3nc(Cl)c(N)nc3N)C2)cc1 (stereo not drawn) [Example 8.1, 3-[(3,5-Diamino-6-chloro-pyrazine-2-carbonyl)-amino]-1-(3-{4-[(2-dimethylaminoethylcarbamoyl)-methoxy]-phenyl}-propyl)-1-[3-(4-methoxycarbonylmethoxy-phenyl)-propyl]-piperidinium chloride hydrochloride]
IC50 (unit inferred): 0.085 µM

COC(=O)COc1ccc(CCC[N+]2(CCCc3ccc(OCC(=O)NCCOCCOCCO)cc3)CCCC(NC(=O)c3nc(Cl)c(N)nc3N)C2)cc1 (stereo not drawn) [Example 8.2, 3-[(3,5-Diamino-6-chloro-pyrazine-2-carbonyl)-amino]-1-{3-[4-({2-[2-(2-hydroxy-ethoxy)ethoxy]-ethylcarbamoyl}-methoxy)-phenyl]-propyl}-1-[3-(4-methoxycarbonylmethoxy-phenyl)-propyl]-piperidinium chloride]
IC50 (unit inferred): 0.37 µM

Nc1nc(N)c(C(=O)NC2CCC[N+](CCCc3ccc(OCCOCCOCCO)cc3)(CCCc3ccc(OCCOCCOCCO)cc3)C2)nc1Cl (stereo not drawn) [Example 9, 3-[(3,5-Diamino-6-chloro-pyrazine-2-carbonyl)-amino]-1,1-bis-[3-(4-{2-[2-(2-hydroxyethoxy)-ethoxy]-ethoxy}-phenyl)-propyl]-piperidinium chloride]
IC50 (unit inferred): 0.095 µM

Nc1nc(N)c(C(=O)NC2CCC[N+](CCCc3ccc(OCCOCCOCCOCCOCCO)cc3)(CCCc3ccc(OCCOCCOCCOCCOCCO)cc3)C2)nc1Cl (stereo not drawn) [Example 9.1, 3-[(3,5-Diamino-6-chloro-pyrazine-2-carbonyl)-amino]-1,1-bis-(3-{4-[2-(2-{2-[2-(2-hydroxy-ethoxy)-ethoxy]-ethoxy}-ethoxy)-ethoxy]-phenyl}-propyl)-piperidinium chloride]
IC50 (unit inferred): 0.111 µM

CCOc1ccc(CCC[N+]2(CCCc3ccc(OCC)cc3)CCCC(NC(=O)c3nc(Cl)c(N)nc3N)C2)cc1 (stereo not drawn) [Example 9.2, 3-[(3,5-Diamino-6-chloro-pyrazine-2-carbonyl)-amino]-1,1-bis-[3-(4-ethoxy-phenyl)-propyl]-piperidinium chloride]
IC50 (unit inferred): 0.026 µM

COCCOc1ccc(CCC[N+]2(CCCc3ccc(OCCOC)cc3)CCCC(NC(=O)c3nc(Cl)c(N)nc3N)C2)cc1 (stereo not drawn) [Example 9.3, 3-[(3,5-Diamino-6-chloro-pyrazine-2-carbonyl)-amino]-1,1-bis-{3-[4-(2-methoxy-ethoxy)-phenyl]-propyl}-piperidinium chloride]
IC50 (unit inferred): 0.022 µM

Nc1nc(N)c(C(=O)N[C@H]2CCC[N+](CCCc3ccc(OCCOCCOCCOCCO)cc3)(CCCc3ccc(OCCOCCOCCOCCO)cc3)C2)nc1Cl [Example 9.4, 3-[(3,5-Diamino-6-chloro-pyrazine-2-carbonyl)-amino]-1,1-bis-{3-[4-(2-{2-[2-(2-hydroxy-ethoxy)-ethoxy]-ethoxy}-ethoxy)-phenyl]-propyl}-piperidinium chloride]
IC50 (unit inferred): 0.067 µM

CN(C)CCOc1ccc(CCC[N+]2(CCCc3ccc(OCCN(C)C)cc3)CCC[C@H](NC(=O)c3nc(Cl)c(N)nc3N)C2)cc1 [Example 9.5, 3-[(3,5-Diamino-6-chloro-pyrazine-2-carbonyl)-amino]-1,1-bis-{3-[4-(2-dimethylamino-ethoxy)-phenyl]-propyl}-piperidinium chloride dihydrochloride]
IC50 (unit inferred): 0.063 µM

Nc1nc(N)c(C(=O)N[C@H]2CCC[N+](CCCc3ccc(OCCO)cc3)(CCCc3ccc(OCCO)cc3)C2)nc1Cl [Example 9.6, (S)-3-[(3,5-Diamino-6-chloro-pyrazine-2-carbonyl)-amino]-1,1-bis-{3-[4-(2-hydroxyethoxy)-phenyl]-propyl}-piperidinium chloride]
IC50 (unit inferred): 0.038 µM

Nc1nc(N)c(C(=O)NC2CCC[N+](CCc3c[nH]c4ccccc34)(CCc3c[nH]c4ccccc34)C2)nc1Cl (stereo not drawn) [Example 10.1, 3-[(3,5-Diamino-6-chloro-pyrazine-2-carbonyl)-amino]-1,1-bis-[2-(1H-indol-3-yl)-ethyl]-piperidinium chloride]
IC50 [1]: 0.14 µM

COc1cccc(CCC[N+]2(CCCc3cccc(OC)c3)CCCC(NC(=O)c3nc(Cl)c(N)nc3N)C2)c1 (stereo not drawn) [Example 10.2, 3-[(3,5-Diamino-6-chloro-pyrazine-2-carbonyl)-amino]-1,1-bis-[3-(3-methoxy-phenyl)-propyl]-piperidinium chloride]
IC50 [1]: 0.027 µM

Nc1nc(N)c(C(=O)N[C@@H]2CCC[N+](CCCc3c(F)cccc3F)(CCCc3c(F)cccc3F)C2)nc1Cl [Example 10.3, 3-[(3,5-Diamino-6-chloro-pyrazine-2-carbonyl)-amino]-1,1-bis-[3-(2,6-difluoro-phenyl)-propyl]-piperidinium chloride]
IC50 [1]: 0.047 µM
